{"source": "patent US20070087744A1", "about": "“METHOD FOR REDUCING THE TIME DELAY IN A TELEPHONE SYSTEM” (priority 2003, published 2007)", "test_in_all_cases": "In Vitro Minimum Inhibitory Concentration", "type_in_all_cases": "cell-based", "key": {"Haemophilus influenzae": {"system": "Haemophilus influenzae", "procedure": "(§1) Subsequent dilutions had the concentration calculated in ppm. Each concentration was challenged with an equal volume of microbial inoculums. After incubation the lowest concentration showing “No-Growth” was recorded as the Minimum Inhibitory Concentration."}, "Bacteroides fragilis": {"system": "Bacteroides fragilis", "procedure": "as §1"}, "Enterococcus faecium": {"system": "Enterococcus faecium", "procedure": "as §1"}, "Candida tropicalis": {"system": "Candida tropicalis", "settings": "ATCC750, ATCC 750", "procedure": "as §1"}, "Candida parapsilosis": {"system": "Candida parapsilosis", "settings": "Lodderomyces parapsilosis; clinical isolate 040400Cp2", "procedure": "as §1"}, "Klebsiella pneumoniae": {"system": "Klebsiella pneumoniae", "procedure": "as §1"}, "Acinetobacter baumannii": {"system": "Acinetobacter baumannii", "procedure": "as §1"}, "Klebsiella oxytoca": {"system": "Klebsiella oxytoca", "procedure": "as §1"}, "Enterobacter aerogenes": {"system": "Enterobacter aerogenes", "settings": "Klebsiella aerogenes", "procedure": "as §1"}, "Micrococcus luteus": {"system": "Micrococcus luteus", "settings": "ATCC7468, ATCC 7468", "procedure": "as §1"}, "Candida albicans": {"system": "Candida albicans", "procedure": "as §1"}, "Enterococcus faecalis": {"system": "Enterococcus faecalis", "procedure": "as §1"}, "Escherichia coli": {"system": "Escherichia coli", "settings": "for MIC: Escherichia coli", "procedure": "as §1"}}}
{"smiles": "CCO", "note": "[70% ethyl alcohol, ethyl alcohol]", "values": [{"measurement": "MIC", "setting": "Haemophilus influenzae; ATCC19418, ATCC 19418", "result": 5830, "unit": "µg/mL"}, {"measurement": "MIC", "setting": "Haemophilus influenzae; clinical isolate 121699Hi", "result": 5830, "unit": "µg/mL"}, {"measurement": "MIC", "setting": "Bacteroides fragilis; ATCC25285, ATCC 25285", "result": 8750, "unit": "µg/mL"}, {"measurement": "MIC", "setting": "Bacteroides fragilis; clinical isolate 061901Bf2", "result": 8750, "unit": "µg/mL"}, {"measurement": "MIC", "setting": "Enterococcus faecium; ATCC51559, ATCC 51559", "result": 8750, "unit": "µg/mL"}, {"measurement": "MIC", "setting": "Enterococcus faecium; clinical isolate 061901Efm1", "result": 8750, "unit": "µg/mL"}, {"measurement": "MIC", "setting": "Candida tropicalis", "result": 17500, "unit": "µg/mL"}, {"measurement": "MIC", "setting": "Candida parapsilosis", "result": 17500, "unit": "µg/mL"}, {"measurement": "MIC", "setting": "Klebsiella pneumoniae; ATCC13883, ATCC 13883", "result": 4380, "unit": "µg/mL"}, {"measurement": "MIC", "setting": "Klebsiella pneumoniae; clinical isolate 06190Kpn1", "result": 8750, "unit": "µg/mL"}, {"measurement": "MIC", "setting": "Acinetobacter baumannii; ATCC19606, ATCC 19606, trypticase soy broth", "result": 4380, "unit": "µg/mL"}, {"measurement": "MIC", "setting": "Acinetobacter baumannii; clinical isolate 061901 Ab1", "result": 8750, "unit": "µg/mL"}, {"measurement": "MIC", "setting": "Klebsiella oxytoca; ATCC43165, ATCC 43165", "result": 8750, "unit": "µg/mL"}, {"measurement": "MIC", "setting": "Klebsiella oxytoca; clinical isolate 061901Ko1", "result": 8750, "unit": "µg/mL"}, {"measurement": "MIC", "setting": "Enterobacter aerogenes; ATCC13048, ATCC 13048", "result": 8750, "unit": "µg/mL"}, {"measurement": "MIC", "setting": "Enterobacter aerogenes; clinical isolate 040400Ea1", "result": 8750, "unit": "µg/mL"}, {"measurement": "MIC", "setting": "Micrococcus luteus", "result": 8750, "unit": "µg/mL"}, {"measurement": "MIC", "setting": "Candida albicans; ATCC10231, ATCC 10231", "result": 17500, "unit": "µg/mL"}, {"measurement": "MIC", "setting": "Candida albicans; clinical isolate 040400Ca2", "result": 17500, "unit": "µg/mL"}, {"measurement": "MIC", "setting": "Enterococcus faecalis; ATCC29212, ATCC 29212", "result": 8750, "unit": "µg/mL"}, {"measurement": "MIC", "setting": "Enterococcus faecalis; clinical isolate 040400Esp17", "result": 8750, "unit": "µg/mL"}, {"measurement": "MIC", "setting": "Escherichia coli; ATCC11229, ATCC 11229", "result": 8750, "unit": "µg/mL"}, {"measurement": "MIC", "setting": "Escherichia coli; ATCC25922, ATCC 25922", "result": 8750, "unit": "µg/mL"}, {"measurement": "MIC", "setting": "Escherichia coli; clinical isolate 051599Ec", "result": 8750, "unit": "µg/mL"}, {"measurement": "Minimum Inhibitory Concentration", "setting": "Escherichia coli; clinical isolate 070399Ec", "result": 8750, "unit": "ppm"}]}
